Results reported in article PMC11500415, “Chemical inhibition of stomatal differentiation by perturbation of the master-regulatory bHLH heterodimer via an ACT-Like domain” (Nature Communications, 2024).
Where “and” joins values, the source holds several entries; their conditions need not be identical. Equal values may be shown once.

Tests used:
Assay type in all cases: cell-based
SCRM2-MUTE heterodimer = molecular target: T1, SCRM2-MUTE heterodimer (Arabidopsis thaliana, UniProt Q9M8K6); assay: Ratiometric BiFC in N. benthamiana leaves; conditions: 100 µM
T1 construct: heterodimerization of SCRM with full-length SPCH, MUTE, or FAMA in the context of the plant cells; nYFP (N terminus of EYFP, 174 amino acids); expressed in transfected cells; host or cells: Nicotiana benthamiana leaves (Agrobacterium infiltration)
From the text: (§1) For ratiometric BiFC assays, the cDNAs of SPCH, MUTE, and FAMA were cloned into the 35S CaMV promoter-driven destination vector pSPYNE, which contains the N terminus of the EYFP protein (nYFP-174 amino acids), while the cDNA of SCRM and SCRM2 was inserted into pSPYCE, which contains the C terminus of the EYFP protein (cYFP-64 amino acids) (see Supplementary Table 5 for detailed information of the constructs). The constructs were then transformed into Agrobacterium tumefaciens strain GV3101. The Agrobacterium was resuspended in infiltration buffer (10 mM MgCl2, 10 mM 2-(N-morpholino)ethanesulfonic acid [pH 5.6], and 150 µM acetosyringone). Bacterial culture densities were adjusted to a final optical density (OD600) of 1.0, and the cell suspensions were incubated at room temperature for 4 hours prior to infiltration. Equal volumes of cultures carrying the corresponding complementary pair of BiFC constructs (YFPn and YFPc), along with CaMV35S::Histone H2B-mScarlet-I3 and the silencing suppressor plasmid p19 (a gift from Dr. Sir David Baulcombe) were mixed and then co-infiltrated into 4-week-old N. benthamiana leaves. The infiltrated N. benthamiana leaves were incubated at 25 °C for 2 days. Subsequently, leaf discs were cut out and cultured in mock or in liquid 1/2 MS media in mock (DMSO) or 100 µM Stomidazolone for 1 day. Confocal imaging of N. benthamiana leaves was performed using a Leica SP8 confocal microscope using a 20X objective lens (Leica Microsystems), simultaneously capturing YFP (excitation at 518 nm and emission at 530 nm) and mScarlet-I3 (excitation at 569 nm and emission at 600 nm) differential interference contrast channels.

SCRM-MUTE heterodimer = molecular target: T2, SCRM-MUTE heterodimer (Arabidopsis thaliana, UniProt Q9M8K6); assay: Ratiometric BiFC in N. benthamiana leaves; conditions: 100 μM, 1 day
T2 construct: expressed in transfected cells; host or cells: yeast strain AH109
T2 sequence (Q9M8K6 1-202): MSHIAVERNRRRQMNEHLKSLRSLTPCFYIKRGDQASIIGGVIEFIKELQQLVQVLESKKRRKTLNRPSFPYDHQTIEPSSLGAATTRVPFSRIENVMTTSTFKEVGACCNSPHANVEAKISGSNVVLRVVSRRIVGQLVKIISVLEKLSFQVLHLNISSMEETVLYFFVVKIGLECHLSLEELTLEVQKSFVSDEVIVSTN
From the text: as §1

SCRM-FAMA heterodimer = molecular target: T3, SCRM-FAMA heterodimer (Arabidopsis thaliana, UniProt Q56YJ8); assay: Ratiometric BiFC in N. benthamiana leaves; conditions: 100 μM, 1 day
T3 construct: heterodimerization of SCRM with full-length SPCH, MUTE, or FAMA in the context of the plant cells; combinations of split YFP constructs fused to the full-length stomatal bHLH proteins; nYFP (N terminus of EYFP, 174 amino acids); cYFP (C terminus of EYFP, 64 amino acids); expressed in transfected cells; host or cells: Nicotiana benthamiana leaves (Agrobacterium infiltration)
T3 sequence (Q56YJ8 1-414): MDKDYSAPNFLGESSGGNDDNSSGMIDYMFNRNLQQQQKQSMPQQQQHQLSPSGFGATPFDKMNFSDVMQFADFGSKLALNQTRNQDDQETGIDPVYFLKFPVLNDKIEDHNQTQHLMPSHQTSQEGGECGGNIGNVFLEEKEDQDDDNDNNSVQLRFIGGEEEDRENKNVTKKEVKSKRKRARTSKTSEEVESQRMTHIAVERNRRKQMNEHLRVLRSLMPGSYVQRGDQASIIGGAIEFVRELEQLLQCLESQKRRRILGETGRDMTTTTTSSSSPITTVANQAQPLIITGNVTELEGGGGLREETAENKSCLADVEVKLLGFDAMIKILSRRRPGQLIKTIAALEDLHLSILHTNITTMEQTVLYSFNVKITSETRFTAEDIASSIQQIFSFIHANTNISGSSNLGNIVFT
From the text: as §1

SCRM2-FAMA heterodimer = molecular target: T4, SCRM2-FAMA heterodimer (Arabidopsis thaliana, UniProt Q56YJ8); assay: Ratiometric BiFC in N. benthamiana leaves; conditions: 100 µM
T4 construct: heterodimerization of SCRM with full-length SPCH, MUTE, or FAMA in the context of the plant cells; we performed rBiFC assays using full-length SCRM2; nYFP (N terminus of EYFP, 174 amino acids); cYFP (C terminus of EYFP, 64 amino acids); expressed in transfected cells; host or cells: Nicotiana benthamiana leaves (Agrobacterium infiltration)
From the text: as §1

DB+SCRM (control yeast) = molecular target: T5, DB+SCRM (control yeast) (Arabidopsis thaliana, UniProt Q9LSE2); assay: Y2H quantitative α-galactosidase assay, control pair DB+SCRM; conditions: individual replicates, listed as AYSJ929
T5 construct: expressed in transfected cells; host or cells: yeast strain AH109
T5 sequence (Q9LSE2 1-494): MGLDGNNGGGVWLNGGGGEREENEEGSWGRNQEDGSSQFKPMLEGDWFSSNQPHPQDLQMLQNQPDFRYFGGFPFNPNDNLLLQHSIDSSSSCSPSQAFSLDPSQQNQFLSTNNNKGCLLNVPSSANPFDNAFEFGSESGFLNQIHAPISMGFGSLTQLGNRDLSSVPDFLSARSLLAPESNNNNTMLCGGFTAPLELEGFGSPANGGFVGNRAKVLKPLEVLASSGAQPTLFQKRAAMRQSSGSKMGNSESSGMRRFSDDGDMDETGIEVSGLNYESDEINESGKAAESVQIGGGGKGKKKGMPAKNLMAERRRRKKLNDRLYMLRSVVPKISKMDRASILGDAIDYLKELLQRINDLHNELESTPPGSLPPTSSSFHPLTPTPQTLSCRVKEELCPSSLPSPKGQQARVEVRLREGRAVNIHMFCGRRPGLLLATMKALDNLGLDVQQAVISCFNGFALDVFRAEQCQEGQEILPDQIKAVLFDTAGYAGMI
From the text: Supplement 41467_2024_53214_MOESM7_ESM.xlsx, sheet "Fig.6b" | column: a-galactosidase [milliunits /(ml x cell)]

SCRM-SPCH heterodimer = molecular target: T6, SCRM-SPCH heterodimer (Arabidopsis thaliana, UniProt Q700C7); conditions: 100 μM, 1 day
T6 construct: heterodimerization of SCRM with full-length SPCH, MUTE, or FAMA in the context of the plant cells; combinations of split YFP constructs fused to the full-length stomatal bHLH proteins; nYFP (N terminus of EYFP, 174 amino acids); cYFP (C terminus of EYFP, 64 amino acids); expressed in transfected cells; host or cells: Nicotiana benthamiana leaves (Agrobacterium infiltration)
T6 sequence (Q700C7 1-364): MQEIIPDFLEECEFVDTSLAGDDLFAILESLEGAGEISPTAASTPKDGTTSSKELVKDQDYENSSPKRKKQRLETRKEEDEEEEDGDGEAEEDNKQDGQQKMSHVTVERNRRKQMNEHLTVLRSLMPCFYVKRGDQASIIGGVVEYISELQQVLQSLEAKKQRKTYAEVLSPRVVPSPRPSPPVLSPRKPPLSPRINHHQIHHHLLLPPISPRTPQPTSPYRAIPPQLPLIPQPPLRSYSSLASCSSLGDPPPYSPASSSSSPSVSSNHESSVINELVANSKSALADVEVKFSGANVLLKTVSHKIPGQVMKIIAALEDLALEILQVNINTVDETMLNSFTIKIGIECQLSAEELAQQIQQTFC
From the text: as §1

## O=C1C(c2ccccc2)=NC(NS(=O)(=O)c2ccccc2)(c2ccccc2)N1S(=O)(=O)c1ccccc1 (centres unmarked) [Stomidazolone]
SCRM2-MUTE heterodimer
  effect on heterodimerization (in words): abolished
SCRM-MUTE heterodimer
  effect on heterodimerization, YFP/RFP signal ratio (in words): severely perturbs
SCRM-FAMA heterodimer
  effect on heterodimerization, YFP/RFP signal ratio (in words): not affecting
SCRM2-FAMA heterodimer
  effect on heterodimerization (in words): abolished
DB+SCRM (control yeast); 10 µM
  a-galactosidase: 0.72 milliunits /(ml x cell) and 0.19 milliunits /(ml x cell) and 0.32 milliunits /(ml x cell)
DB+SCRM (control yeast); 50 µM
  a-galactosidase: 0.16 milliunits /(ml x cell) and 0.47 milliunits /(ml x cell) and 0.51 milliunits /(ml x cell)
DB+SCRM (control yeast); 100 µM
  a-galactosidase: 0.46 milliunits /(ml x cell) and 0.80 milliunits /(ml x cell) and 0.52 milliunits /(ml x cell)
SCRM-SPCH heterodimer
  effect on heterodimerization, YFP/RFP signal ratio (in words): weakly affecting
